Read-outs that look alike come from different tables or passages of the source.
Columns and labels:
TNFα = assay: cells; format: cell-based, human; details: LPS-stimulated human monocytes, read-out: EC50 TNF
IRAK4 enzyme = IRAK4 enzyme (Homo sapiens (Human), UniProt Q9NWZ3); assay: biochemical; format: biochemical; details: IRAK4 enzyme, 500 μM ATP
[1] = Homo sapiens, Monocyte, TNFα by TR-FRET
[2] = Homo sapiens, Monocyte, TNFα content

Sequence of IRAK4 enzyme (Q9NWZ3 whole entry): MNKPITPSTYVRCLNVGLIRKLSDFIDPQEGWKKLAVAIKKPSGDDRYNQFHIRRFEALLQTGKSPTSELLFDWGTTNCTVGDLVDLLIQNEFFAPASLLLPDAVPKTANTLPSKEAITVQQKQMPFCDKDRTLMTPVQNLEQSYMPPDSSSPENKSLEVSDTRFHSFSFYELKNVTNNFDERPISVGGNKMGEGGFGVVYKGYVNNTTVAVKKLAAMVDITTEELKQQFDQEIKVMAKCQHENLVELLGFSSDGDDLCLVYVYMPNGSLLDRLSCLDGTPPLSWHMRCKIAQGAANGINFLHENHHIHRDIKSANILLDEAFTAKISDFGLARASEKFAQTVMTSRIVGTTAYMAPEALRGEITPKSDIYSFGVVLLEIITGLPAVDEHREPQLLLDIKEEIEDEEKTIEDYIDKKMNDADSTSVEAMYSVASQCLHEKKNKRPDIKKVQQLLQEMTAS

Row | Compound | EC50 (TNFα; [1]) [nM] | IC50 (IRAK4 enzyme; TR-FRET) [nM] | EC50 (TNFα; [2]) [nM] | IC50 (IRAK4 enzyme; TR-FRET (HTRF)) [nM] | EC50 (TNFα; TNFα content) [nM]
1 | COC(=O)N1CC[C@H]1CNc1cc(-c2ccc3cc(C#N)cnn23)ncc1C(=O)NC[C@@H](F)C(C)(C)O [Example 890, (S)-methyl 2-(((2-(3-cyanopyrrolo[1,2-b]pyridazin-7-yl)-5-(((R)-2-fluoro-3-hydroxy-3-methylbutyl)carbamoyl)pyridin-4-yl)amino)methyl)azetidine-1-carboxylate] | 357 | 14 |  |  | 
2 | COC(=O)NC1CCC(NC(=O)c2cnc(-c3ccc4cc(C#N)cnn34)cc2N[C@H]2CCCC(O)C2)CC1 (stereo partly drawn) [Example 387, methyl ((1S,4r)-4-(6-(3-cyanopyrrolo[1,2-b]pyridazin-7-yl)-4-(((1S,3R)-3-hydroxy-cyclohexyl)amino)nicotinamido)cyclohexyl)carbamate] |  | 2 | 112 |  | 
3 | CC(C)(O)[C@H](F)CNC(=O)c1cnc(-c2ccc3cc(C#N)cnn23)cc1Nc1ccc(N2CC(F)(F)C2)nc1 [Example 682, (R)-6-(3-cyanopyrrolo[1,2-b]pyridazin-7-yl)-4-((6-(3,3-difluoroazetidin-1-yl)pyridin-3-yl)amino)-N-(2-fluoro-3-hydroxy-3-methylbutyl) nicotinamide] |  |  | 22 | 1 | 
4 | CC(C)(O)[C@H](F)CNC(=O)c1cnc(-c2ccc3cc(C#N)cnn23)cc1N[C@@H]1CCOC1 [Example 194, 6-(3-cyanopyrrolo[1,2-b]pyridazin-7-yl)-N-((R)-2-fluoro-3-hydroxy-3-methylbutyl)-4-(((R)-tetrahydrofuran-3-yl)amino)nicotinamide] |  | < 1 | 48 |  | 
5 | Cc1ncc(C2CCC(Nc3cc(-c4ccc5cc(C#N)cnn45)ncc3C(=O)NC[C@@H](F)C(C)(C)O)CC2)o1 (single isomer, unassigned) [Example 645] |  |  |  | 10 | 301
6 | CC(C)(O)[C@H](F)CNC(=O)c1cnc(-c2ccc3cc(C#N)cnn23)cc1N[C@H]1C[C@H](CN2CCOCC2)C1 [Example 701, 6-(3-cyanopyrrolo[1,2-b]pyridazin-7-yl)-N-((R)-2-fluoro-3-hydroxy-3-methylbutyl)-4-(((1r,3R)-3-(morpholino-methyl)cyclobutyl)amino)nicotinamide] |  |  | 191 | 4 | 
7 | CC1(O)CC2(CC(Nc3cc(-c4ccc5cc(C#N)cnn45)ncc3C(=O)NCC#N)C2)C1 (stereo not drawn) [Example 452, N-(cyanomethyl)-6-(3-cyanopyrrolo[1,2-b]pyridazin-7-yl)-4-((6-hydroxy-6-methyl-spiro[3.3]heptan-2-yl)amino)nicotinamide] |  |  | 112 | < 1 | 
8 | CC(C)(O)[C@H](F)CNC(=O)c1cnc(-c2ccc3cc(C#N)cnn23)cc1N[C@H]1CC[C@](C)(O)CC1 [Example 445, 6-(3-cyanopyrrolo[1,2-b]pyridazin-7-yl)-N-((R)-2-fluoro-3-hydroxy-3-methylbutyl)-4-(((1r,4R)-4-hydroxy-4-methylcyclo-hexyl)amino)nicotinamide] |  |  | 59 | 1 | 
9 | CC(=O)OC12CCC(Nc3cc(-c4ccc5cc(C#N)cnn45)ncc3C(=O)NC[C@@H](F)C(C)(C)O)(CC1)CC2 [Example 418, 4-((2-(3-cyanopyrrolo[1,2-b]pyridazin-7-yl)-5-(((R)-2-fluoro-3-hydroxy-3-methylbutyl)carbamoyl)pyridin-4-yl)amino)bicyclo[2.2.2]octan-1-yl acetate] |  |  | 36 | 1 | 
10 | Cc1ncc(-c2ccc(Nc3cc(-c4ccc5cc(C#N)cnn45)ncc3C(=O)NC[C@@H](F)C(C)(C)O)cc2)o1 [Example 207, (R)-6-(3-cyanopyrrolo[1,2-b]pyridazin-7-yl)-N-(2-fluoro-3-hydroxy-3-methylbutyl)-4-((4-(2-methyloxazol-5-yl)phenyl)amino) nicotinamide] |  | 1 | 96 |  | 
11 | CC(C)(O)[C@H](F)CNC(=O)c1cnc(-c2ccc3cc(C#N)cnn23)cc1Nc1ccc(-c2ccon2)nc1 [Example 775, (R)-6-(3-cyanopyrrolo[1,2-b]pyridazin-7-yl)-N-(2-fluoro-3-hydroxy-3-methylbutyl)-4-((6-(isoxazol-3-yl)pyridin-3-yl)amino)nicotinamide] |  |  | 25 | < 1 | 
12 | CC(C)(O)[C@H](F)CNC(=O)c1cnc(-c2ccc3cc(C#N)cnn23)cc1Nc1ccc(OC2COC2)cc1 [Example 567, (R)-6-(3-cyanopyrrolo[1,2-b]pyridazin-7-yl)-N-(2-fluoro-3-hydroxy-3-methylbutyl)-4-((4-(oxetan-3-yloxy)phenyl)amino)nicotinamide] |  |  | 50 | < 1 | 
13 | CC(C)(O)[C@H](F)CNC(=O)c1cnc(-c2ccc3cc(C#N)cnn23)cc1NC1C2CNCC1C2 (single isomer, unassigned) [Example 26] |  | 3 |  |  | 182
14 | COC(C)(C)[C@H](F)CNC(=O)c1cnc(-c2ccc3cc(C#N)cnn23)cc1NC12CC(NC(C)=O)(C1)C2 [Example 495, (R)-4-((3-acetamidobicyclo[1.1.1]pentan-1-yl)amino)-6-(3-cyanopyrrolo[1,2-b]pyridazin-7-yl)-N-(2-fluoro-3-methoxy-3-methylbutyl)nicotinamide] |  |  | 40 | < 1 | 
15 | CC(C)(O)[C@H](F)CNC(=O)c1cnc(-c2ccc3cc(C#N)cnn23)cc1Nc1cnn(C2CC2)c1 [Example 67, (R)-6-(3-cyanopyrrolo[1,2-b]pyridazin-7-yl)-4-((1-cyclopropyl-1H-pyrazol-4-yl)amino)-N-(2-fluoro-3-hydroxy-3-methylbutyl)nicotinamide] |  | < 1 | 43 |  | 
16 | CC(C)Nc1cc(-c2ccc3cc(C#N)cnn23)ncc1C(=O)NCC(=O)OC(C)(C)C [Example 812, tert-butyl (6-(3-cyano-pyrrolo[1,2-b]pyridazin-7-yl)-4-(isopropylamino)nicotinoyl)glycinate] | 38 | < 1 |  |  | 
17 | CC(C)(O)[C@H](F)CNC(=O)c1cnc(-c2ccc3cc(C#N)cnn23)cc1Nc1ncccn1 [Example 587, (R)-6-(3-cyanopyrrolo[1,2-b]pyridazin-7-yl)-N-(2-fluoro-3-hydroxy-3-methyl-butyl)-4-(pyrimidin-2-ylamino)nicotinamide] |  |  | 150 | 3 | 
18 | CC(C)Nc1cc(-c2ccc3cc(C#N)cnn23)ncc1C(=O)N[C@@H]1CCC[C@H](O)C1 [Example 193, 6-(3-cyanopyrrolo[1,2-b]pyridazin-7-yl)-N-((1R,3S)-3-hydroxycyclohexyl)-4-(isopropylamino) nicotinamide] |  | 3 | 141 |  | 
19 | CC(C)(O)[C@H](F)CNC(=O)c1cnc(-c2ccc3cc(C#N)cnn23)cc1NC1CC(Cc2cnco2)C1 (single isomer, unassigned) [Example 640] |  |  |  | 1 | 117
20 | CC(C)(O)[C@H](F)CNC(=O)c1cnc(-c2ccc3cc(C#N)cnn23)cc1Nc1ccc(-n2ccnc2)cc1 [Example 767, (R)-4-((4-(1H-imidazol-1-yl)phenyl)amino)-6-(3-cyanopyrrolo[1,2-b]pyridazin-7-yl)-N-(2-fluoro-3-hydroxy-3-methylbutyl)nicotinamide] |  |  | 35 | < 1 | 
21 | COc1cc(Nc2cc(-c3ccc4cc(C#N)cnn34)ncc2C(=O)NC[C@@H](F)C(C)(C)O)ccn1 [Example 598, (R)-6-(3-cyano-pyrrolo[1,2-b]pyridazin-7-yl)-N-(2-fluoro-3-hydroxy-3-methyl-butyl)-4-((2-methoxy-pyridin-4-yl)amino) nicotinamide] |  |  | 106 | < 1 | 
22 | COC(=O)N(C)C[C@H]1C[C@H](Nc2cc(-c3ccc4cc(C#N)cnn34)ncc2C(=O)NC[C@@H](F)C(C)(C)O)C1 [Example 620, Methyl (((1R,3r)-3-((2-(3-cyanopyrrolo[1,2-b]pyridazin-7-yl)-5-(((R)-2-fluoro-3-hydroxy-3-methylbutyl)carbamoyl)pyridin-4-yl)amino)cyclobutyl)methyl)(methyl)carbamate] |  |  | 54 | 1 | 
23 | CC(C)(O)CCNC(=O)c1cnc(-c2ccc3cc(C#N)cnn23)cc1NC12CCC(O)(CC1)CC2 [Example 355, 6-(3-cyanopyrrolo[1,2-b]pyridazin-7-yl)-N-(3-hydroxy-3-methylbutyl)-4-((4-hydroxy-bicyclo[2.2.2]octan-1-yl)amino)nicotinamide] |  | < 1 | 23 |  | 
24 | CC(C)(O)[C@H](F)CNC(=O)c1cnc(-c2ccc3cc(C#N)cnn23)cc1NC12CC(C#N)(C1)C2 [Example 378, (R)-4-((3-cyano-bicyclo[1.1.1]pentan-1-yl)amino)-6-(3-cyano-pyrrolo[1,2-b]pyridazin-7-yl)-N-(2-fluoro-3-hydroxy-3-methylbutyl) nicotinamide] |  | < 1 | 38 |  | 
25 | CN(C)C(=O)O[C@H]1CC[C@@H](Nc2cc(-c3ccc4cc(C#N)cnn34)ncc2C(=O)NC[C@@H](F)C(C)(C)O)CC1 [Example 167, (1S,4s)-4-((2-(3-cyano-pyrrolo[1,2-b]pyridazin-7-yl)-5-(((R)-2-fluoro-3-hydroxy-3-methylbutyl)carbamoyl)pyridin-4-yl)amino)cyclohexyl dimethylcarbamate] |  | 1000 | > 10000 |  | 
26 | CC(C)Nc1cc(-c2ccc3cc(C#N)cnn23)ncc1C(=O)N[C@@H]1CCC[C@@H](O)C1 [Example 192, 6-(3-cyanopyrrolo[1,2-b]pyridazin-7-yl)-N-((1R,3R)-3-hydroxycyclohexyl)-4-(isopropylamino) nicotinamide] |  | 5 | 157 |  | 
27 | CC(C)(O)[C@H](F)CNC(=O)c1cnc(-c2ccc3cc(C#N)cnn23)cc1NC12CCC(N3CCOCC3)(CC1)CC2 [Example 780, (R)-6-(3-cyanopyrrolo[1,2-b]pyridazin-7-yl)-N-(2-fluoro-3-hydroxy-3-methylbutyl)-4-((4-morpholinobicyclo[2.2.2]octan-1-yl)amino)nicotinamide] |  |  | 38 | 1 | 

Source: patent US10336762B2 (priority 2017, dated 2019)
